Laboratory results from patent US7122668B2, “Platinum complexes and their use in therapy” (priority 2002, dated 2006).
Where two headings read alike, the source gives them in different places.

Columns and labels:
CH1 = test: Microculture tetrazolium (MTS) cell survival assay; type: cell-based; details: 24 hours incubation
Procedure: (§1) Cytotoxicity of the synthesized complexes was also tested by the MTS method^(21). Accordingly, the compounds were incubated for 24 hours with the corresponding cell lines and the cell survival in compound-treated cultures was evaluated.
(§2) The complexes were incubated for 24 hours with the above mentioned cell lines and the cell survival in compound-treated cultures was evaluated by the (microculture tetrazolium) MTS method as previously reported.

calf thymus DNA = test: DNA binding (calf thymus DNA platination); details: for t1/2 half time of the binding to calf thymus DNA: 10 mM NaClO4, 37° C., ri = 0.08, differential pulse polarography; for ΔTm, 0.01M Na+ / ΔTm, 0.2 M / ΔΔεmax, maximum of the positive CD band at around 275 nm: rb = 0.05; for ΔΔεmax, maximum of the positive CD band at around 275 nm: difference between control and platinated DNA
Procedure: The formation of calf thymus DNA platination was also examined. To this end, calf thymus DNA was incubated with different compounds (Table 3) in which the following parameters were determined: […]

A2780 = test: Microculture tetrazolium (MTS) cell survival assay; type: cell-based; details: 24 hours incubation
Procedure: as §1, §2

CH1cisR = test: Microculture tetrazolium (MTS) cell survival assay; type: cell-based; details: for IC50: 24 hours incubation, MTS; for resistance factor (IC50 resistant/IC50 sensitive): CH1cisR/CH1
Procedure: as §1, §2

A2780cisR = test: Microculture tetrazolium (MTS) cell survival assay; type: cell-based; details: for IC50: 24 hours incubation, MTS; for resistance factor (IC50 resistant/IC50 sensitive): A2780cisR/A2780
Procedure: as §1, §2

41McisR = test: Microculture tetrazolium (MTS) cell survival assay; type: cell-based; details: for resistance factor (IC50 resistant/IC50 sensitive): 41McisR/41M; for IC50: 24 hours incubation, MTS
Procedure: as §1, §2

41M = test: Microculture tetrazolium (MTS) cell survival assay; type: cell-based; details: 24 hours incubation
Procedure: as §1, §2

C-26 cells [1] = test: Platinum complex intracellular accumulation (FAAS); type: cell-based, human; details: C-26, 24 hr
Procedure: (§3) Cells were seeded for 48 hr before one of the complexes was added to the culture medium. After 24 hr of exposure, the complexes were removed and the cells washed twice with ice-cold PBS and pelleted. The cells (1*10^6) were dried and mineralized by heating for 10 min in 65% HNO3 (BDH, England)^(22). Samples were dissolved in de-ionized water and each sample was measured at two different dilutions by flameless Zeeman atomic absorption spectrometer (FAAS). The calibration curves included 5 standards of K2PtCl4 stock solution with concentrations ranging from 50 to 250 ng platinum per ml. Platinum content was expressed as picomoles platinum per 1*10^6 cells.
(§4) The Pt content associated with the cells was measured by Atomic Absorption Spectroscopy (AAS).

OV-1063 cells [2] = test: Platinum complex intracellular accumulation (FAAS); type: cell-based, human; details: OV-1063, 24 hr
Procedure: as §3, §4

C-26 cells [3] = test: Determination of Pt-DNA adducts by FAAS; type: cell-based, human; details: C-26, 24 hr
Procedure: (§5) Cells were seeded for 48 hr before one of the drugs was added to the culture medium. After 24 hr of exposure, the complexes were removed and the cells washed twice with ice-cold PBS and pelleted. DNA from platinum-containing material (2*10^6 cells) was extracted from the cell pellet by QIAamp DNA Blood Kit (QIAGEN, Germany) according to the manufacture instructions. DNA yield was determined by measuring the concentration of DNA in the eluate by absorbance at 260 nm.

OV-1063 cells [4] = test: Determination of Pt-DNA adducts by FAAS; type: cell-based, human; details: OV-1063, 24 hr
Procedure: as §5

OV-1063 cells [5] = test: Methylene blue (MB) assay of cell survival; type: cell-based, human; details: mean ± SD
Procedure: (§6) A human ovarian carcinoma cell line (OV-1063), established at the Hadassah University hospital and human colon carcinoma cell line (C-26) were maintained in RPMI-1640 medium supplemented with 10% FCS, antibiotics and glutamine. All culture medium components were purchased from Biological Industries (Beit-HaEmek, Israel). Both cell lines were maintained at 37° C. in a water-jacketed CO2 incubator.
(§7) Cytotoxicity of the synthesized complexes was tested by the methylene blue (MB) staining assay^(19). A fixed number of exponentially growing cells in 200 μl medium were plated in 96-microwell, flat-bottomed plates. For each of the complexes tested, 4 well were used. Following 24 hr in culture, 20 μl of different concentration of the complexes were added to each well containing untreated cells. Normal saline was added to the controls. Cells were exposed to complexes for 4, 24, or 72 hr. At the end of exposure for a fixed time interval, the treated cells as well as parallel control cells were washed and incubation was continued in fresh medium until termination of the experiment. Following 72 hr of growth, cells were fixed by adding 50 μl of 2.5% of glutaraldehyde to each well for 15 min. Fixed cells were rinsed 10 times with fresh de-ionized water and once with borate buffer (0.1 M, pH=8.5), dried and stained with MB (100 μl of 1% solution in 0.1 M borate buffer, pH=8.5) for 1 hr at room temperature. Stained cells were rinsed thoroughly with de-ionized water to remove any non-cell-bound die and then dried. The MB bound to the fixed cells was extracted by incubation at 37° C. with 200 μl of 0.1N HCl for 1 hr, and the net optical density (OD) of the die in each well was determined by a plate spectrophotometer (Labsystems Multyskan BICHROMATIC, Finland) at 620 nm.

C-26 cells [6] = type: cell-based; details: C-26 cells, mean ± SD
Procedure: as §6, §7

[7] = listed as cis-[PtCl2(NH3)(pip)]
[8] = 4 h exposure, read-out: IC50, 4 h
[9] = 24 h exposure, read-out: IC50, 24 h
[10] = 72 h exposure, read-out: IC50, 72 h
[11] = listed as cis-[PtCl2(NH3)(pic)]

Molecule	t1/2 half time of the binding to calf thymus DNA (calf thymus DNA) [min]	IC50 (A2780) [µM]	IC50 (CH1) [µM]	IC50 (CH1cisR) [µM]	resistance factor (IC50 resistant/IC50 sensitive) (CH1cisR)	IC50 (A2780cisR) [µM]	resistance factor (IC50 resistant/IC50 sensitive) (A2780cisR)	resistance factor (IC50 resistant/IC50 sensitive) (41McisR)	IC50 (41McisR) [µM]	IC50 (41M) [µM]	% IEC/adduct, frequency of interstrand crosslinks (calf thymus DNA) [%]	unwinding angle per adduct (calf thymus DNA) [°]	ΔTm, 0.01M Na+ (calf thymus DNA)	ΔTm, 0.2 M (calf thymus DNA)	also measured
C1CCNCC1.C1CCNCC1.[Cl][Pt][Cl] [Complex 6, Trans-[PtCl2(piperidine)2]]															IC50 (CH1; listed as trans-PtCl2(pip)2): 35 ± 2 µM
C1CCNCC1.N.[Cl][Pt][Cl] [Complex 7, cis-[PtCl2(NH3)(piperidine)]]	113	26 ± 3	36 ± 4	263 ± 17	(7.3)	234 ± 17	9	(4.9)	315 ± 24	64 ± 5					% IEC/adduct, frequency of interstrand crosslinks (calf thymus DNA; [7]): 5%; unwinding angle per adduct (calf thymus DNA; [7]): 13.2°; ΔTm, 0.01M Na+ (calf thymus DNA; [7]): −2.5 0.C; ΔTm, 0.2 M (calf thymus DNA; [7]): −6.0 0.C; ΔΔεmax, maximum of the positive CD band at around 275 nm (calf thymus DNA; [7]): 0.93
C1CNCCN1.Cl.N.[Cl][Pt][Cl] [Complex 8, Trans-[PtCl2(NH3)(piperazine)].HCl]	20	5 ± 1	12 ± 3	34 ± 4	2.8	44 ± 4	8.8	3.0	155 ± 12	52 ± 5	13	26.4	6.3 0.C	−1.9 0.C	ΔΔεmax, maximum of the positive CD band at around 275 nm (calf thymus DNA): 0.01
C1CNCCN1.C1CNCCN1.Cl.[Cl][Pt][Cl] [Complex 14, Trans-[PtCl2(piperazine)(piperazine)].HCl]		17 ± 3	26 ± 2	53 ± 3	2.0	43 ± 3	2.5	3.6	153 ± 10	43 ± 3					
C1CNCCN1.Cl.N.[Cl][Pt@SP1][Cl] [Complex 16, cis-[PtCl2(NH3)(piperazine)].HCl]	35	10 ± 1	28 ± 2	56 ± 3	2.0	25 ± 2	2.5	2.4	112 ± 12	46 ± 3	6	13	3.5 0.C	−4.5 0.C	
N.N.[Cl][Pt+2][Cl] [Transplatin, trans-[PtCl2(NH3)2], reference compound]	100	> 200	> 200	> 200		> 200			> 200	> 200	12	9.4	+8.7 0.C	+0.6 0.C	Penetration to cells (C-26 cells [1]): 384 pmol Pt/1 * 10^6 cells; Penetration to cells (OV-1063 cells [2]): 474 pmol Pt/1 * 10^6 cells; ΔΔεmax, maximum of the positive CD band at around 275 nm (calf thymus DNA): −0.34; Pt-DNA adducts (C-26 cells [3]): 0 pmol Pt/50 μg DNA; Pt-DNA adducts (OV-1063 cells [4]): 0 pmol Pt/50 μg DNA; IC50 (OV-1063 cells [5]; [8]): 81 ± 4.3 µM; IC50 (OV-1063 cells [5]; [9]): 73 ± 5.1 µM; IC50 (OV-1063 cells [5]; [10]): 52 ± 3.2 µM; IC50 (C-26 cells [6]; [8]): 64 ± 2 µM; IC50 (C-26 cells [6]; [9]): 46 ± 3.1 µM; IC50 (C-26 cells [6]; [10]): 41 ± 1.7 µM
C1CCNCC1.C1CCNCC1.[Cl][Pt][Cl] [cis-PtCl2(pip)2, reference compound]		15 ± 2	32 ± 2	280 ± 12	(8)	250 ± 12	(16.7)	6	300 ± 25	50 ± 3					
Cc1ccncc1.N.[Cl][Pt][Cl] [cis-[PtCl2(NH3)(4-picoline)]] [reference compound]															t1/2 half time of the binding to calf thymus DNA (calf thymus DNA; [11]): 21 min; % IEC/adduct, frequency of interstrand crosslinks (calf thymus DNA; [11]): 4%; unwinding angle per adduct (calf thymus DNA; [11]): 12°; ΔTm, 0.01M Na+ (calf thymus DNA; [11]): +1.6 0.C; ΔTm, 0.2 M (calf thymus DNA; [11]): −4.8 0.C; ΔΔεmax, maximum of the positive CD band at around 275 nm (calf thymus DNA; [11]): 0.92; IC50 (OV-1063 cells [5]; [8]): 6 ± 2.2 µM; IC50 (OV-1063 cells [5]; [9]): 5.1 ± 1.9 µM; IC50 (OV-1063 cells [5]; [10]): 4 ± 1.7 µM; IC50 (C-26 cells [6]; [8]): 5.1 ± 1.2 µM; IC50 (C-26 cells [6]; [9]): 4.7 ± 2.4 µM; IC50 (C-26 cells [6]; [10]): 3.7 ± 1.6 µM
Cc1ccncc1.N.[Cl][Pt][Cl] [trans-[PtCl2(NH3)(4-picoline)]] [reference compound]	50										40	39.6	+7.2 0.C	+0.6 0.C	ΔΔεmax, maximum of the positive CD band at around 275 nm (calf thymus DNA): −0.29; IC50 (OV-1063 cells [5]; [8]): 18 ± 3.7 µM; IC50 (OV-1063 cells [5]; [9]): 16 ± 3.5 µM; IC50 (OV-1063 cells [5]; [10]): 14 ± 2.3 µM; IC50 (C-26 cells [6]; [8]): 12 ± 1.2 µM; IC50 (C-26 cells [6]; [9]): 11 ± 2 µM; IC50 (C-26 cells [6]; [10]): 11 ± 1.1 µM
Trans-[PtCl2(isopropylamine)(piperazine)].HCl [Complex 9]		14 ± 1	10 ± 1	50 ± 3	5.0	30 ± 2	2.1	3.2	122 ± 8	38 ± 3					
Trans-[PtCl2(n-butylamine)(piperazine)].HCl [Complex 10]		16 ± 2	17 ± 2	19 ± 3	1.1	28 ± 2	1.8	1.5	48 ± 3	32 ± 5					
Trans-[PtCl2(piperidine)(piperazine)].HCl [Complex 12]		18 ± 2	22 ± 3	85 ± 7	3.9	64 ± 5	3.6	3.2	118 ± 9	37 ± 4					
trans-PtCl2(NH3)(4-pip)Cl2		5 ± 0.7	15 ± 2	94 ± 6	(6.3)	20 ± 2	4.0	5.5	150 ± 8	27 ± 2					
